{"source": "paper PMC10815991", "about": "“Membrane-Bound Redox Enzyme Cytochrome bd-I Promotes Carbon Monoxide-Resistant Escherichia coli Growth and Respiration” (International Journal of Molecular Sciences, 2024)", "origin": "cited, not measured here", "tested_on": "cytochrome bd-I heme d2+", "details": "cited from earlier work", "note": "Like-named read-outs stand apart in the source and are kept apart here.", "data": [{"substance": "nitric oxide [NO]", "values": [{"measurement": "koff, NO dissociation from heme d^2+", "setting": "ref 69", "result": 0.133, "unit": "s⁻¹"}, {"measurement": "koff, NO dissociation from heme d^2+", "setting": "ref 70", "result": 0.163, "unit": "s⁻¹"}]}]}
